Assay results as given in patent US7259004B1, “Endophytic streptomycetes from higher plants with biological activity” (Montana State University, priority 2002, dated 2007).

Key:
[1] = tested on: Pseudomonas aeruginosa ATCC 27853; test: disk diffusion assay; assay type: cell-based; conditions: 10 micrograms per disk; ciprofloxacin 5, vancomycin 30 micrograms per disk; 35° C. Also: key: R = resistant.
Vibrio fischeri PIC 345 = test: disk diffusion assay; assay type: cell-based; conditions: 10 micrograms per disk; ciprofloxacin 5, vancomycin 30 micrograms per disk; 35° C.
[2] = tested on: Enterococcus faecalis ATCC 51299; test: disk diffusion assay; assay type: cell-based; conditions: 10 micrograms per disk; ciprofloxacin 5, vancomycin 30 micrograms per disk; 35° C.
[3] = tested on: Staphylococcus aureus ATCC 29213; test: disk diffusion assay; assay type: cell-based; conditions: 10 micrograms per disk; ciprofloxacin 5, vancomycin 30 micrograms per disk; 35° C.
[4] = tested on: Acinetobacter sp. ATCC 49137; test: disk diffusion assay; assay type: cell-based; conditions: 10 micrograms per disk; ciprofloxacin 5, vancomycin 30 micrograms per disk; grown at 30° C.
[5] = tested on: Streptococcus pneumoniae ATCC 49619; test: disk diffusion assay; assay type: cell-based; conditions: 10 micrograms per disk; ciprofloxacin 5, vancomycin 30 micrograms per disk; MHA with 5% dsb. and 5% CO2
Bacillus anthracis K8902 = assay type: cell-based; conditions: 10 micrograms per disk; ciprofloxacin 5, vancomycin 30 micrograms per disk; 35° C.
[6] = tested on: Escherichia coli ATCC 25922; test: disk diffusion assay; assay type: cell-based; conditions: 10 micrograms per disk; penicillin G 10 units per disk; 35° C. Also: key: R = resistant.
[7] = tested on: Enterococcus faecium ATCC 49624; test: disk diffusion assay; assay type: cell-based; conditions: 10 micrograms per disk; ciprofloxacin 5, vancomycin 30 micrograms per disk; 35° C.
[8] = tested on: Enterococcus faecium ATCC 51559; test: disk diffusion assay; assay type: cell-based; conditions: 10 micrograms per disk; ciprofloxacin 5, vancomycin 30 micrograms per disk; 35° C.
[9] = tested on: Candida albicans ATCC 24433; test: disk diffusion assay; assay type: cell-based; conditions: 10 micrograms per disk; 35° C. Also: key: R = resistant.
[10] = tested on: Candida albicans ATCC 90028; test: disk diffusion assay; assay type: cell-based; conditions: 10 micrograms per disk; 35° C. Also: key: R = resistant.
[11] = tested on: Candida tropicalis ATCC 750; test: disk diffusion assay; assay type: cell-based; conditions: 10 micrograms per disk; 35° C. Also: key: R = resistant.
Candida krusei ATCC 6258 = test: disk diffusion assay; assay type: cell-based; conditions: 10 micrograms per disk; 35° C.
[12] = tested on: Candida parasdosis ATCC 90018; test: disk diffusion assay; assay type: cell-based, Candida parapsilosis; conditions: 10 micrograms per disk; 35° C. Also: key: R = resistant.
Geotrichum candidum = test: microbroth dilution MIC, plant associated microorganisms; assay type: cell-based; conditions: PD broth, 48 hours at 23° C.
Method: Incubation was for 48 hours at 23° C. A plant pathogenic strain of Pseudomonas syringae was also tested using the same PD broth medium and with concentrations of colony forming units as given above. The organisms were obtained from the Montana State University plant pathogen culture collection administered by Dr. […] The relative activities against plant pathogenic fungi ranged from a few tenths of a microgram up to thirty micrograms. Table 2 provides the results of tests of inhibitory activity of the munumbicins against various plant-pathogenic fungi and one pathogenic bacterium. The data are reported as MIC values in micrograms/ml.

[13] = tested on: Enterococcus faecalis ATCC 51299 (VRE); test: microbroth dilution MIC; assay type: cell-based; conditions: for MIC Enterococcus faecalis ATCC 51299: resistant to vancomycin, first listing in Table 4; for MIC E. faecalis VRE 51299: third listing in Table 4
E. faecalis 29212 = test: microbroth dilution MIC; assay type: cell-based, Enterococcus faecalis
[14] = tested on: Staphylococccus simulans 11631; test: microbroth dilution MIC; assay type: cell-based, Staphylococcus simulans
B. subtilis 1A757 = test: microbe, parasite or virus in culture; assay type: cell-based, Bacillus subtilis; conditions: for increase of MICs when DNA was added: Bacillus subtilis and Staphylococcus aureus, 20 micrograms per well sheared salmon sperm DNA
S. aureus ATCC 6583P = test: MIC with and without double stranded DNA; assay type: cell-based, Staphylococcus aureus
[15] = tested on: M. tuberculosis H37Rv (ATCC 25618) (drug sensitive); test: IC50 in Mycobacteria 7H11 agar; assay type: cell-based, Mycobacterium tuberculosis; conditions: 7H11 agar with 10% OADC
[16] = tested on: Human Breast Cancer Epithelial BT-20; test: CellTiter 96 Aqueous Non-Radioactive Cell Proliferation Assay; assay type: cell-based; conditions: 96-144 hours; Table 7
[17] = tested on: Human Cervical Cancer Epithelial ME180; test: as above; assay type: cell-based; conditions: 48 hours; Table 7
Outline: (§1)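 Cells rested 5 h at 37° C after seeding, then treated in triplicate with two-fold serial dilutions of compound. A-549 and ME-180 were exposed for 48 h. After 1–4 h MTS reagent at 37° C, OD490 was read and corrected by subtracting medium-only blanks.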

[18] = tested on: Human Lung Cancer Epithelial A549; test: as above; assay type: cell-based; conditions: 48 hours; Table 7
Outline: as §1

[19] = tested on: Human Primary Mammary Epithelial HMEC; test: as above; assay type: cell-based; conditions: 48 hours; Table 7
Aspergillus fumigatus = test: microbroth dilution MIC
Bacillus subtilis = test: microbroth dilution MIC
[20] = tested on: Streptococcus pneumoniae 700674; test: microbroth dilution MIC
[21] = tested on: Plasmodium falciparum strain CSC-1 (Honduras); test: antimalarial assay, 3H-phenylalanine radiobioassay in human red blood cells; conditions: human red blood cells, 3H-phenylalanine; standard deviation of the mean, three experiments
[22] = DNA +, 20 micrograms per well of sheared salmon sperm DNA

Substance	diameter of the zone of inhibition, Pseudomonas aeruginosa ATCC 27853 [1]	diameter of the zone of inhibition, Vibrio fischeri PIC 345 (Vibrio fischeri PIC 345)	diameter of the zone of inhibition, Enterococcus faecalis ATCC 51299 [2]	diameter of the zone of inhibition, Staphylococcus aureus ATCC 29213 [3]	diameter of the zone of inhibition, Acinetobacter sp. ATCC 49137 [4]	diameter of the zone of inhibition, Streptococcus pneumoniae ATCC 49619 [5]	diameter of the zone of inhibition, Bacillus anthracis K8902 (Bacillus anthracis K8902)	diameter of the zone of inhibition, Escherichia coli ATCC 25922 [6]	diameter of the zone of inhibition, Enterococcus faecium ATCC 49624 [7]	diameter of the zone of inhibition, Enterococcus faecium ATCC 51559 [8]	diameter of the zone of inhibition, Candida albicans ATCC 24433 [9]	diameter of the zone of inhibition, Candida albicans ATCC 90028 [10]	diameter of the zone of inhibition, Candida tropicalis ATCC 750 [11]	diameter of the zone of inhibition, Candida krusei ATCC 6258 (Candida krusei ATCC 6258)	diameter of the zone of inhibition, Candida parasdosis ATCC 90018 [12]	MIC Geotrichum candidum (Geotrichum candidum)	MIC Enterococcus faecalis ATCC 51299 [13]	MIC E. faecalis VRE 51299 [13]	MIC E. faecalis 29212 (E. faecalis 29212)	MIC Staphylococccus simulans 11631 [14]	also measured
munumbicin B	R	16 mm	23 mm	15 mm	R	17 mm	18 mm	R	21 mm	26 mm	R	R	R	R	R	31.2 micrograms/ml	12.5 micrograms/ml	0.5 micrograms/ml	0.25 micrograms/ml	1 micrograms/ml	MIC E. faecalis 51299 ([13]; second listing in Table 4): 8 micrograms/ml; increase of MICs when DNA was added (B. subtilis 1A757): affected; MIC B. subtilis 1A757 (B. subtilis 1A757; [22]): >32 micrograms/ml; 1×MIC against Bacillus subtilis (B. subtilis 1A757; concentration used in macromolecular synthesis assay): 2 micrograms/ml; MIC S. aureus ATCC 6583P (S. aureus ATCC 6583P; [22]): >32 micrograms/ml; MIC S. aureus ATCC 6583P (S. aureus ATCC 6583P; DNA −): 2 micrograms/ml; IC50 M. tuberculosis H37Rv (ATCC 25618) (drug sensitive) [15]: 46 micrograms/ml; IC50 Human Breast Cancer Epithelial BT-20 [16]: 0.019 micrograms/ml; IC50 Human Cervical Cancer Epithelial ME180 [17]: 0.140 micrograms/ml; IC50 Human Lung Cancer Epithelial A549 [18]: 0.019 micrograms/ml; IC50 Human Primary Mammary Epithelial HMEC [19]: 0.011 micrograms/ml; MIC Aspergillus fumigatus (Aspergillus fumigatus): 20 micrograms/ml; MIC Bacillus subtilis (Bacillus subtilis; first listing in Table 4): 8 micrograms/ml; MIC Bacillus subtilis (Bacillus subtilis; second listing in Table 4): 2 micrograms/ml; MIC Streptococcus pneumoniae 700674 [20]: 0.5 micrograms/ml; IC50 Plasmodium falciparum [21]: 0.13 ± 0.07 µg/mL
munumbicin C	R	9 mm	22 mm	R	R	7 mm	R	R	23 mm	28 mm	R	R	R	8 mm	R	15.6 micrograms/ml	16 micrograms/ml	0.5 micrograms/ml	0.5 micrograms/ml	1 micrograms/ml	increase of MICs when DNA was added (B. subtilis 1A757): affected; MIC B. subtilis 1A757 (B. subtilis 1A757; [22]): >32 micrograms/ml; MIC B. subtilis 1A757 (B. subtilis 1A757; DNA −): 0.5 micrograms/ml; MIC S. aureus ATCC 6583P (S. aureus ATCC 6583P; [22]): >32 micrograms/ml; MIC S. aureus ATCC 6583P (S. aureus ATCC 6583P; DNA −): 0.5 micrograms/ml; IC50 M. tuberculosis H37Rv (ATCC 25618) (drug sensitive) [15]: >150 micrograms/ml; IC50 Human Breast Cancer Epithelial BT-20 [16]: 0.013 micrograms/ml; IC50 Human Cervical Cancer Epithelial ME180 [17]: 0.1 micrograms/ml; IC50 Human Lung Cancer Epithelial A549 [18]: 0.3 micrograms/ml; IC50 Human Primary Mammary Epithelial HMEC [19]: 0.0023 micrograms/ml; MIC Aspergillus fumigatus (Aspergillus fumigatus): 20 micrograms/ml; MIC Bacillus subtilis (Bacillus subtilis; first listing in Table 4): >8 micrograms/ml; MIC Bacillus subtilis (Bacillus subtilis; second listing in Table 4): 0.25 micrograms/ml; MIC Streptococcus pneumoniae 700674 [20]: 0.125 micrograms/ml; IC50 Plasmodium falciparum [21]: 0.0065 µg/mL
